In brackets after ≈: the same amount, converted by molar mass. Like-named read-outs stand apart in the source and are kept apart here.
Tested on: Spodoptera littoralis
Assay: Insecticidal bioassay screening (castor leaf dip, larval mortality)
Assay type: in vivo
Conditions: for Toxicity index %: 72 hrs, Diflubenzuron's LC50/compound's LC50 x 100; for LC90 (mg/L) at 95%: after 72 hrs of treatment; for LC50: Spodoptera littoralis, in Gossypium hirsutum, foliar
Protocol: Five concentrations (200, 100, 50, 25, 12.5 ppm) were designed for this synthetic compound and the reference Diflubenzuron compound as the dynamic ingredients based on ppm via diluting the commercial formulation.
In this experiment, castor leaves are immersed in each of the previously prepared concentrations of the components for 10 seconds and then left to dry for 60 minutes. Larvae of the second and fourth instars of each checked strain are prepared with treated leaves in gauze-covered glass containers for 72 hrs. An untreated control is made in which leaves are dipped in triton x-100 and distilled water only. Then the preserved leaves were removed & fresh, untreated leaves were provided for 72 hours. Three replicates (10 larvae each) were checked for each concentration. Daily inspection was carried out for all treatments and mortality percentages were recorded 3 days (72 hours) after treatment. The average mortality percentage was corrected employing Abbott's formula. The corrected mortality rate for each of the previously synthesized compounds is statistically calculated according to Finney (1970). Through this rate, the corresponding concentration test lines (LDP lines) are assessed.

[1] = 72 h, read-out: LC50 (mg/L) at 95%, 2nd instar larvae, after 72 hrs of treatment
[2] = 72 h, read-out: LC50 (mg/L) at 95%, 4th instar larvae, after 72 hrs of treatment
[3] = against Spodoptera littoralis under laboratory conditions, instar not stated

Structure (SMILES) | Toxicity index % (2nd instar larvae) | LC90 (mg/L) at 95% (2nd instar larvae) | Toxicity index % (4th instar larvae) | LC90 (mg/L) at 95% (4th instar larvae) | LC50 [1] | LC50 [2] | LC50 [3] | Insecticidal activity (in words) (against Spodoptera littoralis, compared with Diflubenzuron) | LC50 (mg/L) at 95% (in vivo)
O=C(NC(=O)c1c(F)cccc1F)Nc1ccc(Cl)cc1 [Diflubenzuron, reference compound] | 100% | 520.0 mg/L (≈ 1670 µM) | 100% | 1540.5 mg/L (≈ 4960 µM) | 45.2 mg/L (≈ 145 µM) | 144 mg/L (≈ 464 µM) | 45.2 mg/L (≈ 145 µM) | – | –
O=C(NC(=S)Nc1cccc2ccccc12)c1ccco1 [Compound 2, N-(Naphthalen-1-ylcarbamothioyl)furan-2-carboxamide] | 11.3% | 3612.2 mg/L (≈ 12200 µM) | 12.9% | 1727.9 mg/L (≈ 5830 µM) | – | – | 400 mg/L (≈ 1350 µM) | active against Spodoptera littoralis | 1211.2 mg/L (≈ 4090 µM)
O=C(NC(=S)Nc1cccc2ccccc12)c1ccco1 [N-(Naphthalen-1-ylcarbamothioyl)furan-2-carboxamide] | – | – | – | – | ~400 mg/L (≈ 1350 µM) | ~1210 mg/L (≈ 4090 µM) | – | – | –

From patent US11897856B1, “N-(Naphthalen-1-ylcarbamothioyl)furan-2-carboxamide as an eco-friendly insecticidal agent against Spodoptera littoralis (boisd.)” (KING FAISAL UNIVERSITY, priority 2023, dated 2024)
